Measured values from patent US8835392B2, “Mimetic peptides and the use thereof in the form of 20S, 26S and immunoproteasome inhibitors” (Technische Universität, priority 2005, dated 2014).
“Also recorded” adds a separate entry of the source. Where a SMILES comes first, the peptide text is derived from it. The star is where a group is joined. Cbz = O=C(OCc1ccccc1)*; OtBu = CC(C)(C)O*

Columns and labels:
[1] = target: T1, 20S proteasome β1 caspase-like activity (LLE-MCA) (Homo sapiens, UniProt P28072+Q99436); experiment: Protease assay, caspase-like activity of isolated 20S proteasomes; assay type: biochemical; settings: isolated 20S proteasome; LLE-MCA 50 μM; 15 min pre-incubation; read-out: IC50 β1 Caspase-like (E)
T1 construct: Proteasomes were isolated from red blood cells; from tissue; host or cells: red blood cells
Description: Proteasomes were isolated from red blood cells. Cells were lysed with DTT (1 mM), and the stroma-free supernatant was loaded on DEAE-sepharose (Toyopearls). Proteasome was eluted with an NaCl-gradient in TEAD (20 mM TrisCl pH 7.4, 1 mM EDTA, 1 mM azide, 1 mM DTT) of 100 to 300 mM NaCl. Proteasome was concentrated using ammonium sulfate-precipitation (between 40 and 70% saturation) and was separated in a 10-40% sucrose-gradient through centrifugation at 40.000 rpm for 16 hours (SW40; L7, Beckman & Coulter). Finally, the proteasomes were purified on a MonoQ-column and eluted with an NaCl-gradient at about 280 mM NaCl. The fractions containing purified proteasome were dialysed against 50 mM NaCl in TEAD and stored on ice. The purity was determined using SDS-PAGE.
Suc-LLVY-AMC, Z-VGR-AMC and LLE-AMC (BACHEM, Calbiochem) was used, in order to determine the chymotrypsin-like, trypsin-like or caspase-like (post-acidic)-activities of the proteasome. Substrate was incubated with proteasome at 37° C. in assay-buffer (20 mM Tris/Cl, pH 7.2, 1 mM EDTA, 1 mM DTT) for one hour. 100 ng proteasome was pre-incubated with 0.01-10 μM of the inhibitor for […]. The reaction was started by the addition of substrate (50 μM). The AMC as released was detected using fluorescence emission at 460 nm (excitation at 390 nm) using a TECAN-fluorimeter. The activity was calculated in fluorescence-units. The inhibition is depicted by IC50-values.
The effects thereof were compared with the one of the commonly used proteasomal inhibitor 3 (MG132). The chymotrypsin-like (Suc-LLVY-AMC), the trypsin-like (Bz-VGR-AMC), and the caspase-like (Z-LLE-AMC)-activities of 20S proteasomes were determined following incubation for one hour at 37° C.
The IC50-values form the inhibition of the proteasome were calculated at increasing concentrations of the inhibitor. The samples were pre-incubated for 15 min in ice. The assay was started through the addition of 50 μM of one of the following fluorogenic peptide substrates:
The release of MCA was determined at 460 nm emission (excitation 390 nm). The IC50-values as calculated for MG132 served as controls.

[2] = target: T2, proteasomal activity in HeLa-cells (Homo sapiens, UniProt P20618+P28074); experiment: Intracellular inhibition of proteasomes in cultivated HeLa-cells; assay type: cell-based; settings: for reduction of the proteolytic activity in cells at 10 nM: HeLa cells; for membrane-permeation / stability during the incubation periods / proteasomal activity reduced to: cultivated cells; for proteasomal activity reduced to: remaining activity
T2 construct: endogenous in cells; host or cells: HeLa
Description: A, HeLa-cells were cultivated were 24 hours in the presence of the inhibitor. The protein concentration was determined in accordance with the cellular lysis according to Bradford in order to normalise the proteasomal activities to the different amounts of cells. Subsequently Complete (Roche) was added to all lysates, and the proteasomal activity was determined through the hydrolysis of Suc-LLVY-AMC. B, HeLa-cells was incubated with 1 μM of compound 15 for 2, 4, 6 and 24 hours. Cells were lysed, and proteins were separated through SDS-PAGE on a 10% gel, blotted to a PVDF-membrane. The accumulation of the poly-ubiquitinylated proteins was detected in a Western blot by an anti-ubiquitine-antibody (DAKO). C, HeLa-Cells were treated with increasing concentrations of the inhibitor 15, 25, 26, 27, and 28 for 24 hours (lane 1: without inhibitor; lane 2: 10 nM; lane 3: 100 nM and lane 4: 1 μM of the given inhibitor). Cells were lysed, proteins were separated on 15% gels, and the accumulation of the poly-ubiquitinylated proteins was controlled through Western blot.
HeLa-Cells were cultivated in RPMI, supplemented with 10% FCS and penicillin/streptomycin, at 5% CO2. Inhibitors were administered from 100×-stock solutions (in DMSO) at the final concentrations as indicated, and incubated with the cells for at least 20 hours.
Cultivated cells (HeLa) were harvested lysed and with 0.1% NP40 in TEAD in the presence of the commercially available protease-inhibitor-mixture Complete (Roche). The proteasomal activity was measured in 10 μl of the lysate using Suc-LLVY-AMC as a substrate. The protein content was quantified by means of Bradford (Protein assay; BioRad).
An application on cell cultures or animals requires that the concentrations of the inhibitors are chose as low as required. The specific proteasomal activity was reduced to a value of below 50% in cells that were treated with 1 μM of the compounds 15, 22, 25, 26, or 28, respectively (FIG. 6A).

HeLa-cells = experiment: Viability of HeLa-cells, crystal violet-staining; assay type: cell-based; settings: for rate of survival of HeLa-cells: 10 μM, 20 hours
Description: A, The viability of HeLa-Cells that were incubated with the compounds 7-28 and MG132 (1 μM), was determined using crystal-violet-staining after 20 h.
B, The viability of HeLa-Cells is dependent from the concentration of the inhibitor. HeLa-cells were cultivated for 20 hours in the presence of increasing concentrations (10 to 10000 nM) of the compounds (7, 13, 15, 18, 20-22, 24-28) and MG 132. The survival of the cells was determined using crystal-violet-staining.
The viability of Hela-Cells in the presence of different compounds was tested in […]. The viability of HeLa-cells was tested through crystal violet-staining following the incubation with the inhibitors. The cells were washed once with PBS, fixed with 1% glutardialdehyde for 30 min, and washed again. Finally, the fixed cells were stained with 0.1% crystal violet in PBS for 30 min, and subsequently carefully washed with water, in order to remove unbound dye. The residual dye was eluted with 0.1% Triton X-100 in PBS, and determined at 550 nm.

Compound	IC50 [1]	reduction of the proteolytic activity in cells at 10 nM [2]	membrane-permeation [2]	stability during the incubation periods [2]	proteasomal activity reduced to [2]	toxicity (HeLa-cells)	rate of survival of HeLa-cells (HeLa-cells)
CC(C)CC(C=O)NC(=O)C(CC(=O)OC(C)(C)C)NC(=O)C(CC(C)C)NC(=O)OCc1ccccc1 (stereo not drawn) [Compound 15, Z-Leu-Asp(O^tBu)Leu-CHO] (Cbz-Leu-Asp(OtBu)-Leu-aldehyde; configuration not given here)	1790 nM	reduction of the proteolytic activity	able to penetrate cellular membranes; also recorded: membrane-permeation	sufficient stability	10%	low toxicity	markedly reduced
CC(C)C[C@H](NC(=O)OCc1ccccc1)C(=O)N[C@@H](CC(C)C)C(=O)N[C@@H](CC(C)C)C(=O)C(=O)Nc1ccccc1 [Compound 28]	> 10000 nM	reduction of the proteolytic activity	membrane-permeation	sufficient stability	10%		markedly reduced
